Results on five molecules are retold here after paper PMC10581904, “Structural basis for abscisic acid efflux mediated by ABCG25 in Arabidopsis thaliana” (Nature Plants, 2023).

The target in data set [1] is T1, ABCG25 (Arabidopsis thaliana, UniProt Q84TH5).
T1 sequence (Q84TH5 1-662): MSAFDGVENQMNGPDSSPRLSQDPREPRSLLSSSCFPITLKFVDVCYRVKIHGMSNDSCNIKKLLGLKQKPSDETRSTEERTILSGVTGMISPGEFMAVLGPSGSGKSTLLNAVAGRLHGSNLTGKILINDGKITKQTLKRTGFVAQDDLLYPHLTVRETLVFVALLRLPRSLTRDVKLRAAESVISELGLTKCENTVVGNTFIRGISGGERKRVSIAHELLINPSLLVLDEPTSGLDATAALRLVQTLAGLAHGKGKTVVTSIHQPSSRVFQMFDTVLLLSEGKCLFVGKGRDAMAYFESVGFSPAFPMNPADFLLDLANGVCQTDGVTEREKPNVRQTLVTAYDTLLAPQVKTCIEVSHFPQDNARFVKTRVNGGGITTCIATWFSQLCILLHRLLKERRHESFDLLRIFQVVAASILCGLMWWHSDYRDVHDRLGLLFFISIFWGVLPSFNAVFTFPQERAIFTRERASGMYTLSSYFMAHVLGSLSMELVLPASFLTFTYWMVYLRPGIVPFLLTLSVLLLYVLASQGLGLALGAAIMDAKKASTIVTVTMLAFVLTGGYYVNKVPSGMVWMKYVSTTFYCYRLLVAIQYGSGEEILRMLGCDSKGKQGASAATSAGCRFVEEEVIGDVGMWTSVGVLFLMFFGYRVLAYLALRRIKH
The data set can be described thus: ATPase activity in liposomes reconstituted with or without cholesterol. Format: biochemical. Details: full-length, N-terminal Flag tag, baculovirus / Sf9 cells, homodimer, purified in DDM or digitonin (with CHS extraction). The conditions noted are these: lipid:cholesterol 9:1 (w/w), proteoliposomes; direct action not proven (sterol identity in the cavity not settled).

For data set [2], the target named is T1, ABCG25. Description: stimulation of ATPase activity (colorimetric Pi release), allosteric sigmoidal fit. Format: biochemical. Details: full-length, N-terminal Flag tag, baculovirus / Sf9 cells, homodimer, purified in DDM or digitonin (with CHS extraction).
The target of data set [3] is T1, ABCG25. The data set can be described thus: [3H]-ABA loading and efflux assays in Sf9 cells. Details: full-length, N-terminal Flag tag, baculovirus / Sf9 cells. In kind it is cell-based. Conditions: 6.6 nM, pH 5.5; labelled compound.
Substrate in data set [4]: Nc1ncnc2c1ncn2[C@@H]1O[C@H](COP(=O)(O)OP(=O)(O)OP(=O)(O)O)[C@@H](O)[C@H]1O
Description: ATPase activity (colorimetric Pi release), Michaelis-Menten fit. The conditions noted are these: 10 mM MgCl2, pH 7.4, 37 °C, detergent micelle (0.01% DDM), no ABA. In kind it is biochemical, Arabidopsis thaliana.

Data set [5] concerns the molecule itself. Description: cryo-EM structure; single particle analysis of purified ABCG25WT in 25 mM HEPES-NaOH pH 7.4, 150 mM NaCl, 0.03% digitonin; apo or with 2 mM ABA; C2 symmetry applied.
Data set [6] deals with the molecule itself. Description: cryo-EM structure; single particle analysis of purified E232Q ABCG25 in digitonin, incubated with 5 mM ATP and 10 mM MgCl2 on ice for 60 min.

Take `CC(C)CCC[C@@H](C)[C@H]1CC[C@H]2[C@@H]3CC=C4C[C@@H](O)CC[C@]4(C)[C@H]3CC[C@]12C` [cholesterol]: the ATPase activity entry at ABCG25 [1] is given as “cholesterol was added during liposomes reconstitution, the ATPase activity of ABCG25 was significantly reduced”.
A word on the EC50: it is the concentration giving half of the maximal effect. A higher EC50 goes with a less potent agent. At ABCG25 [2], `CC1=CC(=O)CC(C)(C)[C@@]1(O)/C=C/C(C)=C/C(=O)O` [ABA, (S)-(+)-Abscisic acid] came in with an EC50 of 680 nM. That is a sub-micromolar value.
Turning to `CC1=CC(=O)CC(C)(C)[C@@]1(O)/C=C/C(C)=C\C(=O)O` [[3H]-ABA], the “residual [3H]-ABA” value at ABCG25 [3] was “residual [^3H]-ABA substantially decreased in cells expressing ABCG25”.

B1: wild-type ABCG25 from Arabidopsis thaliana (natural protein, UniProt Q84TH5 1-662, looked up)
chain: MSAFDGVENQMNGPDSSPRLSQDPREPRSLLSSSCFPITLKFVDVCYRVKIHGMSNDSCNIKKLLGLKQKPSDETRSTEERTILSGVTGMISPGEFMAVLGPSGSGKSTLLNAVAGRLHGSNLTGKILINDGKITKQTLKRTGFVAQDDLLYPHLTVRETLVFVALLRLPRSLTRDVKLRAAESVISELGLTKCENTVVGNTFIRGISGGERKRVSIAHELLINPSLLVLDEPTSGLDATAALRLVQTLAGLAHGKGKTVVTSIHQPSSRVFQMFDTVLLLSEGKCLFVGKGRDAMAYFESVGFSPAFPMNPADFLLDLANGVCQTDGVTEREKPNVRQTLVTAYDTLLAPQVKTCIEVSHFPQDNARFVKTRVNGGGITTCIATWFSQLCILLHRLLKERRHESFDLLRIFQVVAASILCGLMWWHSDYRDVHDRLGLLFFISIFWGVLPSFNAVFTFPQERAIFTRERASGMYTLSSYFMAHVLGSLSMELVLPASFLTFTYWMVYLRPGIVPFLLTLSVLLLYVLASQGLGLALGAAIMDAKKASTIVTVTMLAFVLTGGYYVNKVPSGMVWMKYVSTTFYCYRLLVAIQYGSGEEILRMLGCDSKGKQGASAATSAGCRFVEEEVIGDVGMWTSVGVLFLMFFGYRVLAYLALRRIKH
notes: ABCG25, Arabidopsis thaliana, UniProt Q84TH5, full length; Homodimer of a half-transporter (one NBD and one TMD per chain); No cleavage of the Flag tag is described; the protein was eluted with Flag peptide; also called ABCG25WT; WT
The Km is the concentration of substrate that gives half-maximal velocity. What is called stoichiometry N is the number of molecules, sites or subunits per partner or assembly. As for B1, the Km in data set [4] was 790 µM. The “stoichiometry N” value in data set [5] was determined as 2.

B2: ABCG25 E232Q catalytic mutant (natural protein, Arabidopsis thaliana, UniProt Q84TH5 1-662, looked up)
chain: MSAFDGVENQMNGPDSSPRLSQDPREPRSLLSSSCFPITLKFVDVCYRVKIHGMSNDSCNIKKLLGLKQKPSDETRSTEERTILSGVTGMISPGEFMAVLGPSGSGKSTLLNAVAGRLHGSNLTGKILINDGKITKQTLKRTGFVAQDDLLYPHLTVRETLVFVALLRLPRSLTRDVKLRAAESVISELGLTKCENTVVGNTFIRGISGGERKRVSIAHELLINPSLLVLDQPTSGLDATAALRLVQTLAGLAHGKGKTVVTSIHQPSSRVFQMFDTVLLLSEGKCLFVGKGRDAMAYFESVGFSPAFPMNPADFLLDLANGVCQTDGVTEREKPNVRQTLVTAYDTLLAPQVKTCIEVSHFPQDNARFVKTRVNGGGITTCIATWFSQLCILLHRLLKERRHESFDLLRIFQVVAASILCGLMWWHSDYRDVHDRLGLLFFISIFWGVLPSFNAVFTFPQERAIFTRERASGMYTLSSYFMAHVLGSLSMELVLPASFLTFTYWMVYLRPGIVPFLLTLSVLLLYVLASQGLGLALGAAIMDAKKASTIVTVTMLAFVLTGGYYVNKVPSGMVWMKYVSTTFYCYRLLVAIQYGSGEEILRMLGCDSKGKQGASAATSAGCRFVEEEVIGDVGMWTSVGVLFLMFFGYRVLAYLALRRIKH
notes: ABCG25, Arabidopsis thaliana, UniProt Q84TH5, full length, with E232Q in the Walker B motif of the NBD; Made and purified in the same way as the wild type; incubated with ATP and Mg2+ before grid preparation; also called ABCG25EQ; E232Q ABCG25
Consider B2, for which the “stoichiometry N” value in data set [6] is 2.
